Laboratory results reported in article PMC7697191, “Identification of Novel Influenza Polymerase PB2 Inhibitors Using a Cascade Docking Virtual Screening Approach” (Molecules, 2020).

Key:
[1] = test system: PR/8-R292K mutant (H1N1, recombinant oseltamivir-resistant); assay type: cell-based, influenza A virus (H1N1)
[2] = test system: PR/8-I38T mutant (H1N1, recombinant baloxavir-resistant); assay type: cell-based, influenza A virus (H1N1)

Row | Structure (SMILES) | EC50 [1] | EC50 [2]
1 | C=CCn1cc(CNCc2noc(-c3ccc4c(c3)OCO4)n2)c(C)n1 [11D4] | 21.5 ± 5.49 µM | 32.4 ± 1.52 µM
2 | C=CCn1cc(-c2cc(-c3ccc(C(=O)O)cc3)[nH]c(=N)c2C#N)cn1 [12C5] | 28.6 ± 0.99 µM | 35.4 ± 1.02 µM
3 | CCSc1ncc(-c2cc(-c3c(C)nn(C)c3C)nc(N)c2C#N)cn1 [21A5] | 9.27 ± 0.55 µM | 14.1 ± 0.47 µM
4 | Cc1cccnc1CCNc1nc2nonc2nc1NCc1cccs1 [21B1] | 14.6 ± 1.44 µM | 37 ± 0.67 µM
5 | CCC(CC)O[C@@H]1C=C(C(=O)O)C[C@H](N)[C@H]1NC(C)=O [OC, Oseltamivir carboxylate, reference compound] | > 100 µM | –
6 | O=C(O)[C@H]1C2CCC(CC2)[C@@H]1Nc1nc(-c2c[nH]c3ncc(F)cc23)ncc1F [VX-787, reference compound] | 4.14 ± 0.66 µM | 2.34 ± 0.1 µM
